# “Also recorded” adds a separate entry of the source.
# Key:
# [1] = system: subretinal neovascularization; test: Rhodopsin/VEGF transgenic mice, subretinal neovascularization; assay type: in vivo, rhodopsin/VEGF transgenic mice (V6 mice); conditions: periocular injection at P7, measured P21; 100 μg CGC-11144, 1 mg CGC-11047, 750 μg CGC-11093
# Excerpt: Transgenic mice (V6 mice) in which the rhodopsin promoter drives expression of VEGF165 in photoreceptors have onset of VEGF expression at post-natal day 7 (P7) and soon after begin to develop neovascularization originating from the deep capillary bed that grows through the photoreceptor layer into the subretinal space. (Okamoto N et al., Amer. J. Pathol. 151: 281-91 (1997); Tobe T et al., Invest. Ophthalmol. Vis. Sci. 39: 180-188 (1998)). Hemizygous transgene positive mice were given a periocular injection of 100 μg of CGC-11144 (n=3), 1 mg of CGC-11047 (n=3), 750 μg of CGC-11093 (n=3) or vehicle (n=7) at P7. At post-natal day 21 (P21), mice were euthanized and the amount of subretinal neovascularization was quantified as previously described (Tobe, ibid.). Briefly, mice were anesthetized, perfused with fluorescein-labeled dextran, and the number of neovascular lesions on the outer surface of the retina and their total area were measured on retinal flat mounts by image analysis as described in Example 1.
# [2] = system: retinal function (ERG a- and b-wave amplitudes); test: Retinal function assessed by electroretinograms (ERG); assay type: in vivo, C57BL/6 mice
# Procedure: Adult female C57BL/6 mice were given an intravitreous injection of 2, 4, or 20 μg of CGC-11144 in one eye and an injection of vehicle in the fellow eye and after 3 days ERGs were recorded as previously described (Okoye et al., J. Neuosci. 23: 4164-4172 (2003)). ERGs were also performed after daily periocular injections of 0.2 mg of CGC-11144 for 2 weeks. Mice were dark-adapted for a standardized 12-hour period overnight and ERG recordings were performed using the Espion ERG Diagnosys (Diagnosys LLL, Littleton, Mass.). All manipulations were done with dim red light illumination. Beginning the same time each morning, mice were anesthetized by ip injection of 25 μl/g body weight of Avertin (Aldrich, Milwaukee, Wis.) diluted 1:39 in PBS. Corneas were anesthetized with a drop of 0.5% proparacaine hydrochloride (Alcon Labs) and pupils were dilated with 1% tropicamide. Mice were placed on a pad heated to 39° C. and platinum electrodes were placed on each cornea after application of gonioscopic prism solution (Alcon Labs). The reference electrode was placed subcutaneously in the anterior scalp between the eyes, and the ground electrode was inserted into the tail. Electrode impedance was balanced for each eye pair measured. The head of the mouse was placed in a standardized position in a Ganzfeld bowl illuminator that assured equal illumination of the eyes. Simultaneous recordings from both eyes were made for eleven intensity levels of white light ranging from −3.00 to +1.40 log cd-s/m^2. The Espion ERG machine measures the ERG response six times at each flash-intensity and records the average value.
# CNV lesions = test: TUNEL staining for apoptosis within CNV lesions; assay type: in vivo, C57BL/6 mice; conditions: periocular 200 μg on days 7 and 8 after laser
# Procedure: On days 7 and 8 after laser-induced rupture of Bruch's membrane, adult female C57BL/6 mice received a periocular injection of 0.2 mg of CGC-11144 or vehicle and then they were euthanized. Eyes were embedded in OCT and 10 μm serial sections were cut through CNV lesions and fixed with 1% paraformaldehyde for 10 minutes at room temperature. TUNEL staining was done using an ApopTag Fluorescein Red Kit (Intergen, Purchase, N.Y.) following the manufacturer's instructions. Adjacent sections were stained for GSA to visualize vascular cells on some sections; TUNEL staining was done to identify cell undergoing apoptosis on adjacent sections.
# retinal structure = test: Retinal structure in hematoxylin and eosin stained retinal sections; assay type: in vivo, mice
# Procedure: The remaining 10 mice were given an intravitreous injection of 20 μg of CGC-11144 in one eye and vehicle in the fellow eye on days 7 and 10 and then CNV area was measured at each rupture site at 14 days after laser (n=30 in each group). […] After 3 days, ERGs were performed as described in Methods. […] (In FIGS. 3C-3F, retinal sections were stained with hematoxylin and eosin; FIG. 3C and FIG. 3E, 40×; FIG. 3D and FIG. 3F, 100×.)
# [3] = Tolerability of intraperitoneal injections in mice; assay type: in vivo
# [4] = system: choroidal neovascularization (CNV) at Bruch's membrane rupture sites; test: Mouse model of laser-induced choroidal neovascularization (rupture of Bruch's membrane), CNV area on choroidal flat mounts; assay type: in vivo, C57BL/6J mice
# [5] = daily periocular 200 μg for 14 days
# [6] = intravitreous 2 μg, after 3 days
smiles,measurement,setting,value
CCNCCCCNCCCCNCCCCNCCCCNC/C=C/CNCCCCNCCCCNCCCCNCCCCNCC.Cl.Cl.Cl.Cl.Cl.Cl.Cl.Cl.Cl.Cl [CGC-11144],subretinal neovascularization vs vehicle,[1],significantly less subretinal neovascularization
same,ERG a- and b-wave amplitudes vs vehicle,[2]; [5],normal ERG a- and b-wave amplitudes; also recorded: no difference in mean a-wave or b-wave amplitudes
same,ERG a-wave amplitudes,[2]; [6],only mildly decreased at highest flash intensities
same,ERG b-wave amplitudes,[2]; [6],profoundly reduced at all flash intensities
same,ERG amplitudes,"[2]; intravitreous 10 μg, after 3 days",striking decrease in ERG amplitudes
same,ERG a- and b-wave amplitudes,"[2]; intravitreous 20 μg, after 3 days",dramatically reduced
same,ERG b-wave amplitudes compared to PBS,"[2]; intravitreous 2, 4, or 20 μg, after 3 days, p<0.05",significant decrease in b-wave amplitudes
same,ERG a-wave amplitudes compared to PBS,"[2]; intravitreous 4 or 20 μg, after 3 days, p<0.05",significant decrease in a-wave amplitudes
same,TUNEL-stained (apoptotic) cells within CNV lesions,CNV lesions,many TUNEL-stained cells within CNV lesions; also recorded: several red TUNEL-stained nuclei located within the CNV lesion
same,appearance of retinas,retinal structure; [5],normal-appearing retinas
same,retinal structure / morphology,retinal structure; intravitreous 20 μg,markedly disrupted; also recorded: substantial disruption of the morphology of the retina
same,tolerability,[3]; ip 10 mg/kg twice a week,well tolerated
same,tolerability,"[3]; ip 20 mg/kg twice a week, 2-week treatment period",not well tolerated and several mice died
same,area of CNV vs day 7 baseline and vehicle fellow eyes (regression),"[4]; daily periocular injections days 7 to 14, 200 μg CGC-11144, 100 μg DFMO, or both",significant reduction in CNV area; also recorded: significantly less
same,area of CNV vs controls (no injection or vehicle-injected fellow eye),[4]; intraocular 20 μg on days 0 and 7 after rupture,significantly less CNV than corresponding controls
same,decrease in area of CNV compared to vehicle-treated or untreated eyes,"[4]; intravitreous 20 μg on days 0 and 7 after rupture, measured day 14",approximately 40%
same,area of established CNV vs vehicle fellow eyes and vs 7 day baseline (regression),"[4]; intravitreous 20 μg on days 7 and 10, measured day 14",significantly smaller in area
same,size (area) of CNV lesions vs vehicle,"[4]; ip 10 mg/kg twice a week, 2 weeks after rupture of Bruch's membrane, 10 mg/kg","statistically significant reductions in the size of CNV lesions; also recorded: small, but significant reductions in CNV"
same,size (area) of CNV lesions vs vehicle,"[4]; ip 20 mg/kg twice a week, surviving mice, 20 mg/kg","small statistically significant reductions in CNV lesion size; also recorded: small, but significant reductions in CNV"
same,decrease in CNV area compared to vehicle-treated eyes,"[4]; periocular 200 μg 3 times a week, day 14",40%
same,area of established CNV vs vehicle fellow eyes and 7 day baseline (regression),"[4]; periocular 200 μg on days 7, 10 and 13, measured day 14",significant decrease in area of CNV; also recorded: significantly smaller
same,area of CNV vs controls (no injection or vehicle-injected fellow eye),"[4]; periocular 200 μg three times a week, day 14",significantly less CNV than corresponding controls
same,amount of CNV on day 14 vs vehicle (suppression),"[4]; single periocular injection at time of rupture, 200 μg CGC-11144, 2 mg CGC-11047, 1.5 mg CGC-11093",significantly reduced the amount of CNV
same,amount of CNV vs vehicle (duration of effect),"[4]; single periocular injection one week prior to rupture, 200 μg CGC-11144, 2 mg CGC-11047, 1.5 mg CGC-11093",significant reduction of the amount of CNV
same,amount of CNV vs vehicle (duration of effect),"[4]; single periocular injection two weeks prior to rupture, 200 μg CGC-11144, 2 mg CGC-11047, 1.5 mg CGC-11093",no significant effect
